Results: ChEMBL document CHEMBL1201862, “PubChem BioAssay data set” (2004)
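Growth conditions: 96-well plates. Treatment: test compound, 48 hours, 5 concentrations. Analysis: linear interpolation between bracketing concentrations; unreached endpoints set to highest concentration. Here, GI50 denotes the concentration required for 50% inhibition of growth.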 Calls of active or inactive are those of the source. Rule as the data show it: active = GI50 up to about 1.1 µM and inactive = higher.

How the values were obtained:
Assay in all cases: DTP human tumour cell line panel, 48 h
786-0 = test system: 786-0
BT-549 = test system: BT-549
CAKI-1 = test system: CAKI-1
EKVX = test system: EKVX
HOP-62 = test system: HOP-62
K562 = test system: K562
LOX IMVI = test system: LOX IMVI
M14 = test system: M14
MDA-MB-435 = test system: MDA-MB-435
NCI-H522 = test system: NCI-H522
OVCAR-8 = test system: OVCAR-8
SF-268 = test system: SF-268
SK-MEL-28 = test system: SK-MEL-28
SK-MEL-5 = test system: SK-MEL-5
SN12C = test system: SN12C
SNB-19 = test system: SNB-19
SNB-75 = test system: SNB-75
SW-620 = test system: SW-620
T47D = test system: T47D
TK-10 = test system: TK-10

SMILES	GI50 (786-0)	GI50 (BT-549)	GI50 (CAKI-1)	GI50 (EKVX)	GI50 (HOP-62)	GI50 (K562)	GI50 (LOX IMVI)	GI50 (M14)	GI50 (MDA-MB-435)	GI50 (NCI-H522)	GI50 (OVCAR-8)	GI50 (SF-268)	GI50 (SK-MEL-28)	GI50 (SK-MEL-5)	GI50 (SN12C)	GI50 (SNB-19)	GI50 (SNB-75)	GI50 (SW-620)	GI50 (T47D)	GI50 (TK-10)
CC(C)(CCc1nc2ccccc2[nH]1)C(=O)O	> 100 µM (inactive)	> 100 µM (inactive)	> 100 µM (inactive)	> 100 µM (inactive)	> 100 µM (inactive)	> 28 µM (inactive)	> 100 µM (inactive)	> 100 µM (inactive)	> 100 µM (inactive)	> 100 µM (inactive)	> 100 µM (inactive)	> 100 µM (inactive)	> 100 µM (inactive)	> 100 µM (inactive)	> 100 µM (inactive)	> 100 µM (inactive)	> 100 µM (inactive)	> 100 µM (inactive)	> 100 µM (inactive)	> 100 µM (inactive)
Cc1cc2nc3[nH]c4c(Cl)cc(Cl)cc4c3nc2cc1C	> 100 µM (inactive)	98.4 µM (inactive)	> 100 µM (inactive)	> 100 µM (inactive)	> 100 µM (inactive)	> 100 µM (inactive)	> 100 µM (inactive)	> 100 µM (inactive)	> 100 µM (inactive)	> 100 µM (inactive)	> 100 µM (inactive)	> 100 µM (inactive)	> 100 µM (inactive)	> 100 µM (inactive)	> 100 µM (inactive)	> 100 µM (inactive)	9.12 µM (inactive)	> 100 µM (inactive)	> 100 µM (inactive)	17.3 µM (inactive)
O=C(NCCc1ccccc1)c1cc(/C=C/c2cc(O)ccc2O)ccc1O	2.38 µM (inactive)	1.78 µM (inactive)	2.94 µM (inactive)	2.91 µM (inactive)	5.69 µM (inactive)	2.59 µM (inactive)	4.17 µM (inactive)	5.56 µM (inactive)	3.96 µM (inactive)	1.64 µM (inactive)	3.85 µM (inactive)	3.19 µM (inactive)	3.08 µM (inactive)	2.74 µM (inactive)	4.92 µM (inactive)	6.71 µM (inactive)	5.57 µM (inactive)	5.71 µM (inactive)	1.92 µM (inactive)	2.93 µM (inactive)
CC(=O)O[C@H]1C(=O)[C@@]2(C)[C@H]([C@H](OC(=O)c3ccccc3)[C@]3(O)C[C@H](OC(=O)[C@H](O)[C@@H](NC(=O)c4ccccc4)c4cccc(N(C)C)c4)C(C)=C1C3(C)C)[C@]1(OC(C)=O)CO[C@@H]1C[C@@H]2O	0.389 µM (active)	0.165 µM (active)	> 48.3 µM (inactive)	> 32.1 µM (inactive)	0.256 µM (active)	0.0324 µM (active)	0.036 µM (active)	0.098 µM (active)	0.00893 µM (active)	0.0533 µM (active)	0.155 µM (active)	0.337 µM (active)	0.575 µM (active)	0.0417 µM (active)	0.041 µM (active)	0.148 µM (active)	1.01 µM (active)	0.0409 µM (active)	0.401 µM (active)	1.41 µM (inactive)
O=C([C@H](O)[C@@H](O)c1cccc(Cl)c1)C12CC3CC(CC(C3)C1)C2	1.05 µM (active)	1.87 µM (inactive)	2.08 µM (inactive)	2.07 µM (inactive)	2.69 µM (inactive)	2.98 µM (inactive)	1.22 µM (inactive)	2.45 µM (inactive)	2.58 µM (inactive)	2.23 µM (inactive)	1.88 µM (inactive)	1.81 µM (inactive)	3.21 µM (inactive)	4.13 µM (inactive)	1.61 µM (inactive)	1.82 µM (inactive)	1.72 µM (inactive)	2.06 µM (inactive)	2.16 µM (inactive)	1.98 µM (inactive)
